{"source": "ChEMBL document CHEMBL3045790", "about": "“QSAR study of 5-arylidene-2,4-thiazolidinediones as aldose reductase inhibitors” (Med Chem Res, 2008)"}
{"molecular_target": "Aldo-keto reductase family 1 member B1 (Homo sapiens, UniProt P15121)", "assay": "Inhibition of aldose reductase (unknown origin)", "units": {"IC50": "nM"}}
{"compound": "O=C1NC(=O)/C(=C/c2cccc3ccccc23)S1", "IC50": 8950}
{"compound": "O=C(O)CN1C(=O)S/C(=C\\c2cccc(Oc3ccccc3)c2)C1=O", "IC50": 10700}
{"compound": "O=C(O)CN1C(=O)S/C(=C\\c2ccc(Oc3ccccc3)cc2)C1=O", "IC50": 170}
{"compound": "O=C(O)CN1C(=O)S/C(=C\\c2ccc(OCc3ccccc3)cc2)C1=O", "IC50": 10700}
{"compound": "O=C1NC(=O)/C(=C/c2cccc(Oc3ccccc3)c2)S1", "IC50": 280}
{"compound": "COC(=O)CN1C(=O)S/C(=C/c2cccc(Oc3ccccc3)c2)C1=O", "IC50": 260}
{"compound": "O=C(O)CN1C(=O)S/C(=C/c2ccc(-c3ccccc3)cc2)C1=O", "IC50": 661}
{"compound": "O=C(O)CN1C(=O)S/C(=C/c2cccc3ccccc23)C1=O", "IC50": 6180}
{"compound": "O=C1NC(=O)/C(=C\\c2cccc(O)c2)S1", "IC50": 150}
{"compound": "O=C(O)CN1C(=O)S/C(=C/c2cccc(O)c2)C1=O", "IC50": 4170}
{"compound": "COC(=O)CN1C(=O)S/C(=C/c2ccc(O)cc2)C1=O", "IC50": 39100}
{"compound": "O=C(O)CN1C(=O)S/C(=C/c2ccc(O)cc2)C1=O", "IC50": 490}
{"compound": "O=C(O)/C=C/CN1C(=O)S/C(=C/c2ccc(O)cc2)C1=O", "IC50": 1190}
{"compound": "Nc1cccc(/C=C2/SC(=O)NC2=O)c1", "IC50": 6140}
{"compound": "COC(=O)CN1C(=O)S/C(=C/c2cccc(N)c2)C1=O", "IC50": 1320}
{"compound": "O=C(O)CN1C(=O)S/C(=C/c2cccc([N+](=O)[O-])c2)C1=O", "IC50": 130}
{"compound": "O=C(O)CN1C(=O)S/C(=C/c2ccc([N+](=O)[O-])cc2)C1=O", "IC50": 820}
{"compound": "O=C1NC(=O)/C(=C/c2ccc(O)cc2)S1", "IC50": 20200}
